Columns and labels:
CASOB (Sicklepod) = assay: Postemergence herbicidal evaluation; format: in vivo, Cassia obtusifolia
Outline: (§1)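 Two-week seedlings sprayed postemergence at 40 psi; formulation: 1:1 acetone/water, 0.5% TWEEN 20; application ≈0.0156–0.500 kg/ha. Greenhouse grow-out, then 0–9 visual scoring at 4–5 weeks.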

[1] = test system: CHEAL (Lambsquarters, Common); assay: Postemergence herbicidal evaluation; format: in vivo, Chenopodium album
Outline: as §1

ECHCG (Barnyardgrass) = assay: Postemergence herbicidal evaluation; format: in vivo, Echinochloa crus-galli
Outline: as §1

ORYSAT (Rice, Tebonnet) [2] = assay: Postemergence herbicidal evaluation; format: in vivo, Oryza sativa, (L.) Tebonnet
Outline: as §1

GALAP (Galium) = assay: Preemergence herbicidal evaluation; format: in vivo, Galium aparine; conditions: rated 4-5 weeks after treatment
Outline: (§2)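 Steps: mix seeds into potting soil; plant atop ~1 inch soil; spray compound in aqueous acetone (~0.0156-0.500 kg/ha equivalent); maintain in greenhouse with watering; rate visually 0-9 versus control at 4-5 weeks.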

SETVI (Foxtail, Green) = assay: Preemergence herbicidal evaluation; format: in vivo, Setaria viridis; conditions: rated 4-5 weeks after treatment
Outline: as §2

[3] = test system: GLXMAW (Soybean, Williams); assay: Preemergence herbicidal evaluation; format: in vivo, Glycine max, (L.) Merr. cv Williams; conditions: rated 4-5 weeks after treatment
Outline: as §2

ORYSAT (Rice, Tebonnet) [4] = assay: Preemergence herbicidal evaluation; format: in vivo, Oryza sativa, (L.) Tebonnet; conditions: rated 4-5 weeks after treatment
Outline: as §2

[5] = test system: TRZAWR (Wheat, Winter, cv Riband); assay: Preemergence herbicidal evaluation; format: in vivo, Triticum aestivum; conditions: rated 4-5 weeks after treatment
Outline: as §2

ZEAMX (Corn, Field) = assay: Preemergence herbicidal evaluation; format: in vivo, Zea mays; conditions: rated 4-5 weeks after treatment
Outline: as §2

CYPIR (Rice Flatsedge) = assay: Preemergence weed control under flooded paddy conditions; format: in vivo, Cyperus iria; conditions: rated 3-4 weeks after treatment
Outline: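 Herbicidal effect is scored visually on a 0-9 scale against an untreated control, three to four weeks after compounds are pipetted into the flood water (1.5 to 3 cm deep) over seeds planted in silt loam at 0.5 cm depth. Rates: about 0.0313 to 0.500 kg/ha.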

MOOVA (Monochoria) = assay: as above; format: in vivo, Monochoria vaginalis; conditions: rated 3-4 weeks after treatment
Outline: (§3)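 Using flooded silt loam (water 1.5 to 3 cm deep), seeds sown in the top 0.5 cm were exposed preemergence to compound pipetted into the flood at about 0.0313 to 0.500 kg/ha. Effects were scored 0-9 by eye three to four weeks later.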

[6] = test system: SAGPY (Arrowhead (Pygmaea)); assay: as above; format: in vivo, Sagittaria pygmaea; conditions: rated 3-4 weeks after treatment
Outline: as §3

CYPSE (Flatsedge) = assay: Postemergence weed control under flooded paddy conditions; format: in vivo, Cyperus serotinus; conditions: postemergence weeds, 3-4 weeks after treatment
Outline: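 Injury ratings (0–9 scale covering stand, vigor, malformation, size, chlorosis and overall appearance versus control) were made three to four weeks after treatment. Test material, about 0.0313 to 0.500 kg/ha a.i. in 50/50 v/v aqueous/acetone, was added to flood water 1.5 to 3 cm deep over 3 to 5 cm weeds and 1.5 to 2.5 leaf rice.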

## Cn1c(C(F)(F)F)cc(=O)n(-c2cc(N=C3SCC(=O)N3CC(=O)NS(C)(=O)=O)c(Cl)cc2F)c1=O [Compound 38, 2-{{2-Chloro-5-[3,6-dihydro-3-methyl-2,6-dioxo-4-(trifluoromethyl)-1(2H)-pyrimidinyl]-4-fluoro-phenyl}imino}-N-(methylsulfonyl)-4-oxo-3-thiazolidineacetamide]
CASOB (Sicklepod); Rate 0.0156 kg/ha
  Postemergence herbicidal rating CASOB: 0.0
CASOB (Sicklepod); Rate 0.0313 kg/ha
  Postemergence herbicidal rating CASOB: 1.0
CASOB (Sicklepod); Rate 0.0625 kg/ha
  Postemergence herbicidal rating CASOB: 2.0
CASOB (Sicklepod); Rate 0.1250 kg/ha
  Postemergence herbicidal rating CASOB: 3.0
CASOB (Sicklepod); Rate 0.2500 kg/ha
  Postemergence herbicidal rating CASOB: 3.0
[1]; Rate 0.0156 kg/ha
  Postemergence herbicidal rating CHEAL: 1.0
[1]; Rate 0.0313 kg/ha
  Postemergence herbicidal rating CHEAL: 3.0
[1]; Rate 0.0625 kg/ha
  Postemergence herbicidal rating CHEAL: 4.0
[1]; Rate 0.1250 kg/ha
  Postemergence herbicidal rating CHEAL: 6.0
[1]; Rate 0.2500 kg/ha
  Postemergence herbicidal rating CHEAL: 9.0
ECHCG (Barnyardgrass); Rate 0.0156 kg/ha
  Postemergence herbicidal rating ECHCG: 0.0
ECHCG (Barnyardgrass); Rate 0.0313 kg/ha
  Postemergence herbicidal rating ECHCG: 2.0
ECHCG (Barnyardgrass); Rate 0.0625 kg/ha
  Postemergence herbicidal rating ECHCG: 2.0
ECHCG (Barnyardgrass); Rate 0.1250 kg/ha
  Postemergence herbicidal rating ECHCG: 5.0
ECHCG (Barnyardgrass); Rate 0.2500 kg/ha
  Postemergence herbicidal rating ECHCG: 9.0
ORYSAT (Rice, Tebonnet) [2]; Rate 0.0156 kg/ha
  Postemergence herbicidal rating ORYSAT: 0.5
ORYSAT (Rice, Tebonnet) [2]; Rate 0.0313 kg/ha
  Postemergence herbicidal rating ORYSAT: 0.5
ORYSAT (Rice, Tebonnet) [2]; Rate 0.0625 kg/ha
  Postemergence herbicidal rating ORYSAT: 2.5
ORYSAT (Rice, Tebonnet) [2]; Rate 0.1250 kg/ha
  Postemergence herbicidal rating ORYSAT: 6.0
ORYSAT (Rice, Tebonnet) [2]; Rate 0.2500 kg/ha
  Postemergence herbicidal rating ORYSAT: 7.5
GALAP (Galium); rate 0.0313 kg/ha
  Preemergence herbicidal rating GALAP: 0.0
GALAP (Galium); rate 0.0625 kg/ha
  Preemergence herbicidal rating GALAP: 5.0
GALAP (Galium); rate 0.1250 kg/ha
  Preemergence herbicidal rating GALAP: 8.0
GALAP (Galium); rate 0.2500 kg/ha
  Preemergence herbicidal rating GALAP: 9.0
SETVI (Foxtail, Green); rate 0.0313 kg/ha
  Preemergence herbicidal rating SETVI: 0.0
SETVI (Foxtail, Green); rate 0.0625 kg/ha
  Preemergence herbicidal rating SETVI: 3.0
SETVI (Foxtail, Green); rate 0.1250 kg/ha
  Preemergence herbicidal rating SETVI: 7.0
SETVI (Foxtail, Green); rate 0.2500 kg/ha
  Preemergence herbicidal rating SETVI: 9.0
[3]; rate 0.0313 kg/ha
  Preemergence herbicidal rating GLXMAW: 0.0
[3]; rate 0.0625 kg/ha
  Preemergence herbicidal rating GLXMAW: 2.0
[3]; rate 0.1250 kg/ha
  Preemergence herbicidal rating GLXMAW: 2.0
[3]; rate 0.2500 kg/ha
  Preemergence herbicidal rating GLXMAW: 6.0
ORYSAT (Rice, Tebonnet) [4]; rate 0.0313 kg/ha
  Preemergence herbicidal rating ORYSAT: 0.0
ORYSAT (Rice, Tebonnet) [4]; rate 0.0625 kg/ha
  Preemergence herbicidal rating ORYSAT: 0.0
ORYSAT (Rice, Tebonnet) [4]; rate 0.1250 kg/ha
  Preemergence herbicidal rating ORYSAT: 0.0
ORYSAT (Rice, Tebonnet) [4]; rate 0.2500 kg/ha
  Preemergence herbicidal rating ORYSAT: 2.0
[5]; rate 0.0313 kg/ha
  Preemergence herbicidal rating TRZAWR: 0.0
[5]; rate 0.0625 kg/ha
  Preemergence herbicidal rating TRZAWR: 0.0
[5]; rate 0.1250 kg/ha
  Preemergence herbicidal rating TRZAWR: 2.0
[5]; rate 0.2500 kg/ha
  Preemergence herbicidal rating TRZAWR: 7.0
ZEAMX (Corn, Field); rate 0.0313 kg/ha
  Preemergence herbicidal rating ZEAMX: 0.0
ZEAMX (Corn, Field); rate 0.0625 kg/ha
  Preemergence herbicidal rating ZEAMX: 0.0
ZEAMX (Corn, Field); rate 0.1250 kg/ha
  Preemergence herbicidal rating ZEAMX: 0.0
ZEAMX (Corn, Field); rate 0.2500 kg/ha
  Preemergence herbicidal rating ZEAMX: 4.0
CYPIR (Rice Flatsedge); 0.0313 kg/ha
  Herbicidal rating CYPIR: 3.0
CYPIR (Rice Flatsedge); 0.0625 kg/ha
  Herbicidal rating CYPIR: 3.0
CYPIR (Rice Flatsedge); 0.1250 kg/ha
  Herbicidal rating CYPIR: 5.0
CYPIR (Rice Flatsedge); 0.2500 kg/ha
  Herbicidal rating CYPIR: 5.0
MOOVA (Monochoria); 0.0313 kg/ha
  Herbicidal rating MOOVA: 9.0
MOOVA (Monochoria); 0.0625 kg/ha
  Herbicidal rating MOOVA: 9.0
MOOVA (Monochoria); 0.1250 kg/ha
  Herbicidal rating MOOVA: 9.0
MOOVA (Monochoria); 0.2500 kg/ha
  Herbicidal rating MOOVA: 9.0
[6]; 0.0313 kg/ha
  Herbicidal rating SAGPY: 0.0
[6]; 0.0625 kg/ha
  Herbicidal rating SAGPY: 3.0
[6]; 0.1250 kg/ha
  Herbicidal rating SAGPY: 4.0
[6]; 0.2500 kg/ha
  Herbicidal rating SAGPY: 9.0
CYPSE (Flatsedge); rate 0.0313 kg/ha
  Herbicidal rating CYPSE: 0.0
CYPSE (Flatsedge); rate 0.0625 kg/ha
  Herbicidal rating CYPSE: 0.0
CYPSE (Flatsedge); rate 0.1250 kg/ha
  Herbicidal rating CYPSE: 0.0
CYPSE (Flatsedge); rate 0.2500 kg/ha
  Herbicidal rating CYPSE: 3.0
